Data published in PMC9268515, “UGT1A1 and UGT1A9 Are Responsible for Phase II Metabolism of Tectorigenin and Irigenin In Vitro” (Molecules, 2022).
Where two headings read alike, the source gives them in different places.

Legend:
UGTs in HLMs = test: Inhibition of glucuronidation reaction by chemical inhibitors in HLMs; type: in vitro ADME, human; details: vs. control without inhibitor
Experimental: To obtain suitable incubation conditions, we first evaluated the linearity of metabolite formation at different times (10-60 min), the UDPGA concentrations (0.5-5 mM), and the microsome protein concentrations in HLMs (0.2-2 mg/mL). The final incubation medium used in the experiment contained MgCl2 (10 mM), microsomes (0.5 mg/mL), 1,4-lactone monohydrate (5 mM), alamethicin ([…]), UDPGA (1 mM), and different concentrations of tectorigenin or […] (1-300 μM) in Tris-HCl buffer (50 mM, pH 7.4). The mixture was incubated at 37 °C for 30 min; then, the reaction was stopped by adding ice-cold methanol. After the mixtures were centrifuged (17,000 rpm, 10 min), and the supernatant was analyzed by HPLC. Michaelis-Menten parameters (Vmax and Km) were determined on the basis of the nonlinear regression of the plot of the substrate concentration vs. rate of metabolite formation. Several well-characterized UGT substrates were used as “inhibitors” to examine the involvement of UGTs in the glucuronidation of tectorigenin or […]. To reduce nonspecific inhibition, the concentration of each inhibitor was determined according to the available literature, namely, 100 μM silibinin for UGT1A1 [31], 50 μM trifluoperazine for UGT1A4 [32], 100 μM 1-naphthol for UGT1A6/1A9 [18, 33], and 500 μM fluconazole for UGT2B7 [34]. A reaction without inhibitors was carried out in parallel as a control.

[1] = tested on: pooled human liver microsomes (HLMs); test: Glucuronidation kinetics of tectorigenin and irigenin in HLMs; type: in vitro ADME; details: irigenin glucuronidation in HLMs
Experimental: To obtain suitable incubation conditions, we first evaluated the linearity of metabolite formation at different times (10–60 min), the UDPGA concentrations (0.5–5 mM), and the microsome protein concentrations in HLMs (0.2–2 mg/mL). The final incubation medium used in the experiment contained MgCl2 (10 mM), microsomes (0.5 mg/mL), 1,4-lactone monohydrate (5 mM), alamethicin ([…]), UDPGA (1 mM), and different concentrations of tectorigenin or irigenin (1–300 μM) in Tris-HCl buffer (50 mM, pH 7.4). The mixture was incubated at 37 °C for 30 min; then, the reaction was stopped by adding ice-cold methanol. After the mixtures were centrifuged (17,000 rpm, 10 min), and the supernatant was analyzed by HPLC. Michaelis–Menten parameters (Vmax and Km) were determined on the basis of the nonlinear regression of the plot of the substrate concentration vs. rate of metabolite formation.
(§1) For both HLMs and UGTs, metabolic kinetic analysis was performed by fitting the data to the Michaelis-Menten model. The Km and Vmax of enzymes were calculated as follows:(3) V=Vmax×[S]/Km+[S], where [S] is the substrate concentration. All results were shown as the mean ± standard error (SE). Differences among different groups were compared using one-way analysis of variance. A p-value < 0.05 was considered statistically significant.

UGT1A1 = molecular target: T1, UGT1A1 (Homo sapiens, UniProt P22309); test: Recombinant UGT reaction screening and enzyme kinetics, UGT1A1; type: in vitro ADME; details: recombinant UGT1A1 screening
T1 construct: purchased BD Biosciences (Woburn, MA, USA)
T1 sequence (P22309 26-533): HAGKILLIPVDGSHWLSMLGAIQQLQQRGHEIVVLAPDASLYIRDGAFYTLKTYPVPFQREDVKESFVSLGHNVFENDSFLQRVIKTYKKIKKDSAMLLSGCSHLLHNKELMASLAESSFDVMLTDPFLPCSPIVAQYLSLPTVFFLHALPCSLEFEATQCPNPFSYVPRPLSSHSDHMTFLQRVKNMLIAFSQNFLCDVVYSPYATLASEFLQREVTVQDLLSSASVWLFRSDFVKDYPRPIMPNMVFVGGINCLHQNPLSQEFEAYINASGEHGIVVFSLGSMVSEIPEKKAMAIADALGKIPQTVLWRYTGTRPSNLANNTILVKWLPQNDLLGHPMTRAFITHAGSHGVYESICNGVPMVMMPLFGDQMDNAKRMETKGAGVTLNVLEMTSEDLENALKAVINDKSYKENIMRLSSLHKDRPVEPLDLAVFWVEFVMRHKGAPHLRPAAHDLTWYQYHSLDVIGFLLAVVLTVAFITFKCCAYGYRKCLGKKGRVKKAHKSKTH
Experimental: (§2) UGT reaction screening of tectorigenin and irigenin was conducted using nine commercially available human UGTs (UGT1A1/1A3/1A4/1A6/1A9/2B4/2B7/2B15/2B17). Furthermore, we studied the enzymatic kinetic characteristics of tectorigenin and irigenin using UGT1A1 and UGT1A9. Six concentrations of tectorigenin and irigenin (1, 3, 10, 30, 100, and 300 μM) were incubated in triplicate in order to obtain the enzyme kinetic characteristics of tectorigenin and irigenin glucuronide.
as §1

UGT1A9 = molecular target: T2, UGT1A9 (Homo sapiens, UniProt O60656); test: Recombinant UGT reaction screening and enzyme kinetics, UGT1A9; type: in vitro ADME; details: recombinant UGT1A9 screening
T2 construct: purchased BD Biosciences (Woburn, MA, USA)
T2 sequence (O60656 26-530): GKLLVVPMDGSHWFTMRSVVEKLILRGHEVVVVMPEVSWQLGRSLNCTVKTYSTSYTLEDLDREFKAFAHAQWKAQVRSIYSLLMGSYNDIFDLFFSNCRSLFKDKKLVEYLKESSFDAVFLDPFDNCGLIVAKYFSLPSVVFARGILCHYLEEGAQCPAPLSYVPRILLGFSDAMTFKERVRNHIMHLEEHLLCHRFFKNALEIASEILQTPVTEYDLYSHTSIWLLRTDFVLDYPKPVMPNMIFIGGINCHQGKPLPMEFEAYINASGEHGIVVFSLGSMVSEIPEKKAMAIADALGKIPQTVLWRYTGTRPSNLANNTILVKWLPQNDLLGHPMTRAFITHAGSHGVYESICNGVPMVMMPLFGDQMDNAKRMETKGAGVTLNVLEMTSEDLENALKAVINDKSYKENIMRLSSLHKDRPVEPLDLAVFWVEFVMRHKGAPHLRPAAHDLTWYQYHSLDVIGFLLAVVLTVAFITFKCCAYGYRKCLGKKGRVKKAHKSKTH
Experimental: as §2, §1

[2] = Stability experiment under different storage conditions; type: physicochemical; details: for Stability in Autosampler for 12 h, RE (%): 4 °C; for Stability in Autosampler for 12 h, RE (%) / Stability in Inactivated Metabolic System for 2 h, RE (%) / Stability −80 °C for 7 Days, RE (%): n = 5; for Stability in Inactivated Metabolic System for 2 h, RE (%): approximately 25 °C
Experimental: In the stability experiment, we evaluated the stability of tectorigenin and irigenin, as well as their metabolites, under different conditions. […] Metabolites (M, M1, and M2) were stable in the inactivated metabolic system for 2 h (held constant at approximately 25 °C) and after storage for 7 days (−80 °C), as well as in the pretreated samples placed in the autosampler for 12 h at 4 °C.

[3] = substrate: COc1c(O)cc2occ(-c3ccc(O)cc3)c(=O)c2c1O; test: Recombinant UGT reaction screening and enzyme kinetics, UGT1A1; type: in vitro ADME, human; details: other: tectorigenin glucuronidation (M) by UGT1A1
Experimental: as §2, §1

[4] = substrate: COc1cc(-c2coc3cc(O)c(OC)c(O)c3c2=O)cc(O)c1OC; test: as above; type: in vitro ADME, human; details: other: irigenin glucuronidation, UGT1A1(M1)
Experimental: as §2, §1

[5] = substrate: COc1c(O)cc2occ(-c3ccc(O)cc3)c(=O)c2c1O; test: Recombinant UGT reaction screening and enzyme kinetics, UGT1A9; type: in vitro ADME, human; details: other: tectorigenin glucuronidation (M) by UGT1A9
Experimental: as §2, §1

[6] = substrate: COc1cc(-c2coc3cc(O)c(OC)c(O)c3c2=O)cc(O)c1OC; test: as above; type: in vitro ADME, human; details: other: irigenin glucuronidation
Experimental: as §2, §1

[7] = 100 μM silibinin, 100 μM 1-naphthol

COc1cc(C2Oc3cc([C@H]4Oc5cc(O)cc(O)c5C(=O)[C@@H]4O)ccc3OC2CO)ccc1O (some centres unmarked) [Silibinin]
Effect of UGT inhibitor on tectorigenin glucuronidation (UGTs in HLMs; [7]): significantly inhibited | Effect of UGT inhibitor on production of M1 from irigenin (UGTs in HLMs; 100 μM silibinin): significantly inhibited

COc1cc(-c2coc3cc(O)c(OC)c(O)c3c2=O)cc(O)c1OC [Irigenin, 3’,5,7-trihydroxy-4’,5’,6-trimethoxy isoflavone]
Vmax for M1 formation ([1]; metabolite M1): 6.09 ± 0.27 nmol/min/mg | Km ([1]; metabolite M1, read-out: Km for M1 formation): 16.9 ± 2.96 µM | Vmax for M2 formation ([1]; metabolite M2): 1.16 ± 0.03 nmol/min/mg | Km ([1]; metabolite M2, read-out: Km for M2 formation): 27.4 ± 2.46 µM | Activity in glucuronidation of irigenin, M1 formation (UGT1A1): highest activity | Activity in glucuronidation of irigenin, M2 formation (UGT1A9): highest effect | Stability in pretreated samples in the autosampler ([2]; autosampler 12 h at 4 °C): stable | RE and RSD values in pretreated samples in the autosampler ([2]; autosampler 12 h at 4 °C, printed as below ±5%): < 5%

Oc1cccc2ccccc12 [1-naphthol]
Effect of UGT inhibitor on production of M2 from irigenin (UGTs in HLMs; 100 μM 1-naphthol): inhibited | Effect of UGT inhibitor on tectorigenin glucuronidation (UGTs in HLMs; [7]): significantly inhibited

COc1c(O[C@@H]2O[C@H](C(=O)O)[C@@H](O)[C@H](O)[C@H]2O)cc2occ(-c3ccc(O)cc3)c(=O)c2c1O [M, tectorigenin-7-O-glucuronide]
Stability in Autosampler for 12 h, RE (%) ([2]; High concentration): −5.18% | Stability in Inactivated Metabolic System for 2 h, RE (%) ([2]; High concentration): 0.59% | Stability −80 °C for 7 Days, RE (%) ([2]; High concentration): 4.71% | Stability in Autosampler for 12 h, RE (%) ([2]; Low concentration): −2.13% | Stability in Inactivated Metabolic System for 2 h, RE (%) ([2]; Low concentration): 0.38% | Stability −80 °C for 7 Days, RE (%) ([2]; Low concentration): 2.90% | Stability of metabolites ([2]; inactivated metabolic system 2 h (approx. 25 °C), 7 days at −80 °C, autosampler 12 h at 4 °C): stable

B1: UGT1A1 (Homo sapiens) (protein)
chain: HAGKILLIPVDGSHWLSMLGAIQQLQQRGHEIVVLAPDASLYIRDGAFYTLKTYPVPFQREDVKESFVSLGHNVFENDSFLQRVIKTYKKIKKDSAMLLSGCSHLLHNKELMASLAESSFDVMLTDPFLPCSPIVAQYLSLPTVFFLHALPCSLEFEATQCPNPFSYVPRPLSSHSDHMTFLQRVKNMLIAFSQNFLCDVVYSPYATLASEFLQREVTVQDLLSSASVWLFRSDFVKDYPRPIMPNMVFVGGINCLHQNPLSQEFEAYINASGEHGIVVFSLGSMVSEIPEKKAMAIADALGKIPQTVLWRYTGTRPSNLANNTILVKWLPQNDLLGHPMTRAFITHAGSHGVYESICNGVPMVMMPLFGDQMDNAKRMETKGAGVTLNVLEMTSEDLENALKAVINDKSYKENIMRLSSLHKDRPVEPLDLAVFWVEFVMRHKGAPHLRPAAHDLTWYQYHSLDVIGFLLAVVLTVAFITFKCCAYGYRKCLGKKGRVKKAHKSKTH
notes: purchased BD Biosciences (Woburn, MA, USA)
Km [3]: 4.064e-05 ± 5.56e-06 M | Vmax [3]: 0.00901 µmol/min/mg | Km [4]: 20.86 ± 2.04 µM | Vmax [4]: 0.00522 µmol/min/mg

B2: UGT1A9 (Homo sapiens) (protein)
chain: GKLLVVPMDGSHWFTMRSVVEKLILRGHEVVVVMPEVSWQLGRSLNCTVKTYSTSYTLEDLDREFKAFAHAQWKAQVRSIYSLLMGSYNDIFDLFFSNCRSLFKDKKLVEYLKESSFDAVFLDPFDNCGLIVAKYFSLPSVVFARGILCHYLEEGAQCPAPLSYVPRILLGFSDAMTFKERVRNHIMHLEEHLLCHRFFKNALEIASEILQTPVTEYDLYSHTSIWLLRTDFVLDYPKPVMPNMIFIGGINCHQGKPLPMEFEAYINASGEHGIVVFSLGSMVSEIPEKKAMAIADALGKIPQTVLWRYTGTRPSNLANNTILVKWLPQNDLLGHPMTRAFITHAGSHGVYESICNGVPMVMMPLFGDQMDNAKRMETKGAGVTLNVLEMTSEDLENALKAVINDKSYKENIMRLSSLHKDRPVEPLDLAVFWVEFVMRHKGAPHLRPAAHDLTWYQYHSLDVIGFLLAVVLTVAFITFKCCAYGYRKCLGKKGRVKKAHKSKTH
notes: as for B1
Km [5]: 1.837e-05 ± 1.16e-06 M | Vmax [5]: 0.00349 µmol/min/mg | Km ([6]; UGT1A9(M1)): 73.88 ± 4.04 µM | Vmax ([6]; UGT1A9(M1)): 0.00045 µmol/min/mg | Km ([6]; UGT1A9(M2)): 25.04 ± 2.37 µM | Vmax ([6]; UGT1A9(M2)): 0.00456 µmol/min/mg
